# Laboratory results as given in US11696901B2 (SHAOGUAN UNIVERSITY, priority 2020, dated 2023).
# Several values for one entry are separate records, joined by “and”; a condition that tells them apart may be missing. Identical values can stand only once.
# How the values were obtained:
# [1] = Optimal concentration of stabilizer Zn^2+, absorbance of curcumin solution at 425 nm; format: physicochemical; conditions: after 60 h, room temperature
# Description: A series of Zn^2+ stock solutions were prepared as follows. 0.03 g, 0.06 g, 0.09 g, 0.12 g, 0.15 g and 0.18 g of zinc sulfate were dissolved with 100 mL of distilled water and stirred uniformly to prepare a series of zinc sulfate stock solutions with a concentration of 0.3 g/L, 0.6 g/L, 0.9 g/L, 1.2 g/L, 1.5 g/L and 1.8 g/L, respectively, which were stored for use.
# The 7 vessels were placed at room temperature and measured for the absorbance at 425 nm using a microplate reader every other 12 h, where each measurement was performed in triplicate.
# [2] = Stability of absorbance (A/A0 after centrifugation); format: physicochemical; conditions: comparative experiment; curcumin concentration 6.0/5.8/4.8/4.0 mg/mL, pH 7/7/7/6 in row order; beverage = A3B2C2D2
# Description: The absorbance (A0) of the sample before the centrifugation and the absorbance (A) of the sample after the centrifugation were measured at the maximum absorption wavelength, and the stability of absorbance was represented by A/A0.
# [3] = Precipitation rate after centrifugation; format: physicochemical; conditions: comparative experiment; curcumin concentration 6.0/5.8/4.8/4.0 mg/mL, pH 7/7/7/6 in row order; beverage = A3B2C2D2
# Description: The weight of the centrifuge tube and the total weight of the sample and the centrifuge tube were measured, and then the sample was centrifuged at 4,000 r/min for 15 min. The supernatant was discarded and the total weight of the centrifuge tube and the precipitate was accurately measured.
# The precipitation rate was calculated as follows: precipitation rate=precipitate weight/sample weightx 100%.
# [4] = DPPH⋅ scavenging activity; format: biochemical; conditions: positive control
# Description: Moreover, it can also be acidified with citric acid to pH 4.6 and then pasteurized at 80° C. for 20 min; or filtered with a 0.22 μm organic filter for cold sterilization. The unsterilized beverage was used as control. The scavenging capacity toward DPPH free radical was used as an index to evaluate the sterilization effect, where the ascorbic acid (Vc) was used as positive control.
# (§1) The beverage samples were prepared as follows.
# 2 mg, 4 mg, 6 mg, 8 mg and 10 mg of Vc were diluted with distilled water to 100 mL, respectively, that was, the final concentrations of the Vc were 20 μg/mL, 40 μg/mL, 60 μg/mL, 80 μg/mL and 100 μg/mL, respectively.
# The reaction mixture was reacted in dark for 30 min, and then measured at 517 nm for the absorbance (A1), where a well containing the sample and 100 μL of absolute ethanol was used as control; a well containing 100 μL of distilled water and 100 μL of the DPPH solution was used as blank group; and Vc was used as positive control.
# (§2) The scavenging rate was calculated as follows: scavenging rate %=[1−(A1−A2)/A0]×100%,
# [5] = ABTS^+⋅ scavenging activity; format: biochemical; conditions: positive control
# Description: as §1
# 2 mg, 4 mg, 6 mg, 8 mg and 10 mg of Vc were diluted with distilled water to 100 mL, respectively, that was, the final concentrations of the Vc were 20 μg/mL, 40 μg/mL, 60 μg/mL, 80 μg/mL and […], respectively.
# 5 mL of a K2S2O8 solution (2.6 mmol/L) and 10 mL of an […] (7.4 mmol/L) were mixed uniformly and reacted in dark for 12 h. The ABTS^+⋅ solution was diluted with phosphate buffer solution (pH=6.6) to an absorbance of 0.70±0.02 to produce a working solution. […] The reaction mixture was mixed uniformly, reacted in dark for 6 min and measured at 734 nm for the absorbance A1, where a well containing the sample and 160 μL of absolute ethanol was used as control; a well containing 40 μL of distilled water and 160 μL of the ABTS^+⋅ solution was used as blank group; and Vc was used as positive control.
# as §2
# [6] = Table 18 (starch sodium octenyl succinate series)
# [7] = Table 19, one value beside each beverage (nanoparticle powder 0.2-1.0%)
# [8] = Table 21, one value beside each test number
# [9] = verification experiment, mean of three repeats
# [10] = verification experiment, single repeats 1-3
SMILES,absorbance of curcumin solution at 425 nm over time ([1]; Zn^2+ concentration 0.3 g/L),absorbance of curcumin solution at 425 nm over time ([1]; Zn^2+ concentration 0.36 g/L),Coefficient of absorbanee stability [2],Precipitation rate after centrifugation (%) [3],DPPH · scavenging rate (%) Vc ([4]; Table 16 (CMC-Na series)),DPPH · scavenging rate (%) Vc ([4]; Table 17 (xanthan gum series)),"DPPH · scavenging rate (%) Vc [4, 6]","Rate of DPPH · radical clearance (%) Vc [4, 7]","DPPH · scavenging rate (%) Vc [4, 8]","DPPH · scavenging rate (%) Vc [4, 9]","DPPH · scavenging rate (%) Vc [4, 10]",ABTS^+ · scavenging rate (%) Vc ([5]; Table 16 (CMC-Na series)),ABTS^+ · scavenging rate (%) Vc ([5]; Table 17 (xanthan gum series)),"ABTS^+ · scavenging rate (%) Vc [5, 6]","Rate of ABTS^+ · radical clearance (%) Vc [5, 7]","ABTS^+ · scavenging rate (%) Vc [5, 8]","ABTS^+ · scavenging rate (%) Vc [5, 9]","ABTS^+ · scavenging rate (%) Vc [5, 10]"
"COc1cc(/C=C/C(=O)CC(=O)/C=C/c2ccc(O)c(OC)c2)ccc1O [Pure curcumin, Curcumin]",smallest slope and relatively stable absorbance,declining tendency,0.286 ± 0.180,0.550 ± 0.100%,–,–,–,–,–,–,–,–,–,–,–,–,–,–
"O=C1O[C@H]([C@@H](O)CO)C(O)=C1O [Vc, ascorbic acid]",–,–,–,–,92.51%,92.51%,92.51%,93.15% and 93.62% and 93.67% and 91.72% and 92.51%,95.72% and 93.44% and 94.65%,94.5 ± 0.00%,95.59% and 94.59%,90.38%,90.38%,90.38%,92.44% and 93.69% and 94.53% and 88.12% and 90.38%,96.13% and 92.88% and 95.10%,95.34 ± 0.00%,95.34%
